Patent publication US8163909B2, “Substituted hydroxyethyl amine compounds as beta-secretase modulators and methods of use” (Amgen Inc., priority 2007, dated 2012)
Read-outs that look alike come from different tables or passages of the source.

What was measured:
[1] = target: Beta Secretase enzyme (BACE) (Homo sapiens, UniProt P56817); experiment: In vitro enzymatic BACE FRET (fluorescence resonance energy transfer) assay; type: biochemical;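 also: fluorescence read after 1 h with 50 nM quenched peptide substrate spanning the BACE cleavage site, in pH 4.2 acetate buffer containing 10% DMSO and nonionic detergent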
Beta Secretase enzyme (BACE), sequence (P56817 46-501): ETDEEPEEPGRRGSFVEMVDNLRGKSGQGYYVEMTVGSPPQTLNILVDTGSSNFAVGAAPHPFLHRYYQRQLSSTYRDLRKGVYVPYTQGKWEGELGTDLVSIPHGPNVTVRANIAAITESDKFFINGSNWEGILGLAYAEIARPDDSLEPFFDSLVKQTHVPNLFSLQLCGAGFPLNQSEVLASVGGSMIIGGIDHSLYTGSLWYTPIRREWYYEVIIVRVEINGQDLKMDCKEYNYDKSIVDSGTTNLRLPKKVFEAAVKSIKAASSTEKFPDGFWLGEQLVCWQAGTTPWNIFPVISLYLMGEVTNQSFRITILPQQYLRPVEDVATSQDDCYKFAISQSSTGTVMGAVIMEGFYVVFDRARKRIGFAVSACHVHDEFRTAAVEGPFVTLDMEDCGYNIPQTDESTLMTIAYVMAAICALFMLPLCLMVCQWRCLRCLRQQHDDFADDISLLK

[2] = system: Aβ40 in conditioned medium of cells stably expressing Amyloid Precursor Protein (APP); experiment: In vitro BACE cell-based assay (Aβ40 in conditioned medium, sandwich ELISA); settings: Homo sapiens;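 also: compounds added as a dilution series, secreted peptide quantified by europium time-resolved fluorescence readout, potency fitted from percent of control versus compound concentration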
[3] = target: CYP3A4 (CYP3A) (Homo sapiens, UniProt P08684); experiment: in vitro; settings: microsomes, pH 7.4;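 also: inhibition of CYP3A-mediated 1-hydroxymidazolam formation after 10 min incubation with NADPH, quantified by HPLC MS relative to metabolite produced without test compound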
CYP3A4 (CYP3A), sequence (P08684 2-503): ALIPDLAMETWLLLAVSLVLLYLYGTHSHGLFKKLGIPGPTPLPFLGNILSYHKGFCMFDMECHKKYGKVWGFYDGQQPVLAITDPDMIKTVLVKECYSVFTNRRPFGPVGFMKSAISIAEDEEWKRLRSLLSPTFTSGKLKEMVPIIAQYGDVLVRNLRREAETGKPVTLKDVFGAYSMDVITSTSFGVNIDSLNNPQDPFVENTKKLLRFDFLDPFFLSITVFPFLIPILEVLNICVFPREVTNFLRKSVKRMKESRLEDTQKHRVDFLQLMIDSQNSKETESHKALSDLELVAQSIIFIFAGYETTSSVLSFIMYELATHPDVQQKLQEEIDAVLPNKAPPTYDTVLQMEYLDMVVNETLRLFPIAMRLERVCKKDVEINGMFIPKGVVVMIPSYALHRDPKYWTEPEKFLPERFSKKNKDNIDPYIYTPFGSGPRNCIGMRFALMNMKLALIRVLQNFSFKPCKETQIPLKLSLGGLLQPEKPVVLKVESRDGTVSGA

[4] = Microsomal stability assay, rat liver microsomes;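 also: rat liver microsomes (0.25 mg/mL) with about 1 µM compound plus 1 mM NADPH, pH 7.4, 37 °C for 30 min, parent left measured by LC-MS/MS against 0 min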
[5] = Microsomal stability assay, human liver microsomes;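 also: pooled human liver microsomes at 0.25 mg/mL with 1 µM compound and NADPH at 37 °C, pH 7.4, for 30 min, unchanged parent quantified by LC-MS/MS against the 0 min sample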
[6] = target: CYP2D6 (Homo sapiens, UniProt P10635); experiment: CYP2D6 inhibition assay (bufuralol, pooled human liver microsomes)
CYP2D6, sequence (P10635 whole entry): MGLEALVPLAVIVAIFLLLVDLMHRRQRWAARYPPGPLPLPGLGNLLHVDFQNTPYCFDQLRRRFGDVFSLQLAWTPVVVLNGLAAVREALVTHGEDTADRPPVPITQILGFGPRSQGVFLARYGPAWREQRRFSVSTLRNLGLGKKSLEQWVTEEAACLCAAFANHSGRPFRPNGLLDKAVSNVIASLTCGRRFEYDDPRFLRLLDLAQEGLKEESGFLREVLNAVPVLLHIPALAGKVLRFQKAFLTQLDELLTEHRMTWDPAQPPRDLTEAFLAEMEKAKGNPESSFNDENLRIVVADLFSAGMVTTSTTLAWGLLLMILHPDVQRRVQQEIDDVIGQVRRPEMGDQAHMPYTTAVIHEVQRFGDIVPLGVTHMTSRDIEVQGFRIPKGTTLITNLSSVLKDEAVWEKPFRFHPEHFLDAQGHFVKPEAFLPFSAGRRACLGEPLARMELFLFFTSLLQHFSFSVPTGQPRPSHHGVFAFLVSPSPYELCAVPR

[7] = BACE enzyme assay IC50, read-out: BACE1 FRET assay
[8] = HEK293, HEK cell-based assay IC50, read-out: HEK cell assay
[9] = 2D6 IC50 (uM), CYP2D6 inhibition
[10] = BACE enzyme assay, IC50's in uM, read-out: BACE1 FRET assay
[11] = HEK293, cell-based assay, HEK cells, IC50's in uM, read-out: HEK cell assay
[12] = 2D6 IC50, CYP enzyme inhibition
[13] = Table 2, read-out: BACE1 FRET assay
[14] = HEK293, Table 2, HEK cells, read-out: HEK cell assay
[15] = read-out: BACE1 FRET assay (IC50)
[16] = HEK293, HEK cells, read-out: HEK cell assay (IC50)
[17] = BACE enzyme assay, read-out: BACE1 FRET assay
[18] = HEK293, HEK cells, read-out: HEK cell assay
[19] = 2D6 IC50 (uM), CYP enzyme inhibition
[20] = HEK293, HEK cell-based assay, IC50's in uM, read-out: HEK cell assay

Compound	IC50 [3] [nM]	RLM ([4]; rat liver microsomes) [µL/min/mg]	HLM ([5]; human liver microsomes) [µL/min/mg]	IC50 [1, 10] [µM]	RLM ([4]; rat liver microsomal data) [µL/min/mg]	HLM ([5]; human liver microsomal data) [µL/min/mg]	further results
CC(=O)N[C@@H](Cc1cc(F)cc(-c2cscn2)c1)[C@H](O)CN[C@H]1CC2(CCC2)Oc2ncc(CC(C)(C)C)cc21 [compound 672]	400	134	358				IC50 [1, 7]: 0.004 µM; IC50 [2, 8]: 0.005 µM; IC50 [6, 9]: 2.7 µM
COCC(=O)N[C@@H](Cc1cc(Br)cc(Br)c1)[C@H](O)CN[C@H]1CC2(CCC2)Oc2ncc(CC(C)(C)C)cc21 [compound 892]	100			0.07	274	399	IC50 [2, 11]: 0.009 µM; IC50 [6, 12]: 3.9 µM
C[C@@H](O)C(=O)N[C@@H](Cc1ccc(F)cc1)[C@H](O)CN[C@H]1CC2(CCC2)Oc2ncc(CC(C)(C)C)cc21 [compound 442]	750				150.333	117.333	IC50 [1, 13]: 0.013 µM; IC50 [2, 14]: 0.016 µM; IC50 [6, 12]: 6.75 µM
COCC(=O)N[C@H](Cc1cccc(-c2nccs2)c1)[C@@H](O)CN[C@H]1CC2(CCC2)Oc2ccc(CC(C)(C)C)cc21 [compound 701, N-((1R,2S)-3-(((4S)-6-(2,2-dimethylpropyl)-3,4-dihydrospiro[chromene-2,1′-cyclobutan]-4-yl)amino)-2-hydroxy-1-(3-(1,3-thiazol-2-yl)benzyl)propyl)-2-methoxyacetamide]	200	160	137				IC50 [1, 7]: 0.008 µM; IC50 [2, 8]: 0.033 µM; IC50 [6, 9]: 0.7 µM
CC(=O)N[C@@H](Cc1cc2c(c(-c3ccncc3)c1)OCO2)[C@H](O)CN[C@H]1CC2(CCC2)Oc2ncc(CC(C)(C)C)cc21 [compound 645]	100	62	451				IC50 [1, 15]: 0.441 µM; IC50 [2, 16]: 0.406 µM; IC50 ([6]; 2D6 IC50, CYP2D6 inhibition): 0.3 µM
CO[C@H](C)C(=O)N[C@@H](Cc1cccc(F)c1)[C@H](O)CN[C@H]1CC2(CCC2)Oc2c(Br)cc(CC(C)C)cc21 [compound 515]	1300				399	775	IC50 [1, 17]: 0.003 µM; IC50 [2, 18]: 0.125 µM; IC50 [6, 19]: 9.4 µM
COCC(=O)N[C@@H](Cc1cc(F)cc(F)c1)[C@H](O)CN[C@H]1CC2(CCC2)Oc2c(Br)cc(CC(C)(C)C)cc21 [compound 464]	1500				364	463	IC50 [1, 13]: 0.004 µM; IC50 [2, 14]: 0.091 µM; IC50 [6, 12]: 11.5 µM
CO[C@H](C)C(=O)N[C@@H](Cc1ccccc1)[C@H](O)CN[C@H]1CC2(CCC2)Oc2c1cc(CC(C)C)cc2-n1ccnc1 [compound 547]	100				260	53	IC50 [1, 17]: 0.042 µM; IC50 [2, 18]: 0.073 µM; IC50 [6, 19]: 4.4 µM
COCC(=O)N[C@@H](Cc1cccc(F)c1)[C@H](O)CN[C@H]1CC2(CCC2)Oc2c(-c3ccnc(N(C)C)c3)cc(CC(C)(C)C)cc21 [Example 439, N-((1S,2R)-3-(((4S)-8-(2-(dimethylamino)-4-pyridinyl)-6-(2,2-dimethylpropyl)-3,4-dihydrospiro[chromene-2,1′-cyclobutan]-4-yl)amino)-1-(3-fluorobenzyl)-2-hydroxypropyl)-2-methoxyacetamide]	1300	515	601				IC50 [1, 7]: 0.02 µM; IC50 [2, 8]: 0.005 µM; IC50 [6, 9]: 4.1 µM
COCC(=O)N[C@@H](Cc1cc(F)cc(F)c1)[C@H](O)CN[C@H]1CC2(CCC2)Oc2c1cc(CC(C)C)nc2-c1cncn1C [compound 715]	≤ 30	34	19				IC50 [1, 7]: 0.02 µM; IC50 [2, 8]: 0.016 µM; IC50 [6, 9]: 1.8 µM
CO[C@H](C)C(=O)N[C@@H](Cc1ccc2c(c1)OCO2)[C@H](O)CN[C@H]1CC2(CCC2)C(=O)c2ncc(CC(C)(C)C)cc21 [compound 626]	500	260	153				IC50 [1, 15]: 0.133 µM; IC50 [2, 16]: 0.108 µM; IC50 ([6]; 2D6 IC50, CYP2D6 inhibition): 14.4 µM
COCC(=O)N[C@@H](Cc1cccc(F)c1)[C@H](O)CN[C@H]1CC2(CCC2)Oc2c(-c3ccnc(Cl)c3)cc(CC(C)(C)C)cc21 [compound 639, N-((1S,2R)-3-(((4S)-8-(2-chloro-4-pyridinyl)-6-(2,2-dimethylpropyl)-3,4-dihydrospiro[chromene-2,1′-cyclobutan]-4-yl)amino)-1-(3-fluorobenzyl)-2-hydroxypropyl)-2-methoxyacetamide]	1200	399	706				IC50 [1, 15]: 0.005 µM; IC50 [2, 16]: 0.025 µM; IC50 ([6]; 2D6 IC50, CYP2D6 inhibition): 1.8 µM
CO[C@H](C)C(=O)N[C@@H](Cc1cc(F)cc(-c2nccs2)c1)[C@H](O)CN[C@H]1CC2(CCC2)Oc2ncc(CC(C)(C)F)cc21 [compound 742]	700	42	39.5				IC50 [1, 7]: 0.084 µM; IC50 [2, 8]: 0.045 µM; IC50 [6, 9]: 0.95 µM
CC(=O)N[C@@H](Cc1ccc(F)c(-c2ncc[nH]2)c1)[C@H](O)CN[C@H]1CC2(CCC2)Oc2ncc(CC(C)(C)C)cc21 [Example 428, N-((2S,3R)-4-((S)-2,2-spirocyclobutyl-6-neopentyl-3,4-dihydro-2H-pyrano[2,3-b]pyridin-4-ylamino)-1-(4-fluoro-3-(1H-imidazol-2-yl)phenyl)-3-hydroxybutan-2-yl)acetamide]	300	124	225				IC50 [1, 7]: 0.061 µM; IC50 [2, 8]: 0.013 µM; IC50 [6, 9]: 1.3 µM
C#Cc1cc(C[C@H](NC(=O)COC)[C@H](O)CN[C@H]2CC3(CCC3)Oc3ncc(CC(C)C)cc32)ccc1F [compound 780, N-((1S,2R)-1-(3-ethynyl-4-fluorobenzyl)-2-hydroxy-3-(((4′S)-6′-(2-methylpropyl)-3′,4′-dihydrospiro[cyclobutane-1,2′-pyrano[2,3-b]pyridin]-4′-yl)amino)propyl)-2-methoxyacetamide]	100			0.01	74	61	IC50 [2, 20]: 0.032 µM; IC50 [6]: 1.4 µM
COCC(=O)N[C@@H](Cc1cccc(-c2ncc(C)s2)c1)[C@H](O)CN[C@H]1CC2(CCC2)Oc2ncc(CC(C)(C)C)cc21 [compound 759, N-((1S,2R)-3-(((4′S)-6′-(2,2-dimethylpropyl)-3′,4′-dihydrospiro[cyclobutane-1,2′-pyrano[2,3-b]pyridin]-4′-yl)amino)-2-hydroxy-1-(3-(5-methyl-1,3-thiazol-2-yl)benzyl)propyl)-2-methoxyacetamide]	300			0.021	399	436	IC50 [2, 20]: 0.071 µM; IC50 [6, 19]: 1.5 µM
CC(C)(C)Cc1cnc2c(c1)[C@@H](NC[C@@H](O)[C@H](Cc1ccc(F)cc1)NC(=O)[C@@H]1CN(Cc3nccs3)CCO1)CC1(CCC1)O2 [compound 769]	400			0.01	333	706	IC50 [2, 20]: 0.013 µM; IC50 [6, 19]: 5.2 µM
COCC(=O)N[C@@H](Cc1ccc2c(c1)OCO2)[C@H](O)CN[C@H]1CC2(CCC2)Oc2ncc([C@H]3CC3(C)C)cc21 [compound 576]	100	209	31				IC50 [1, 15]: 0.328 µM; IC50 [2, 16]: 0.249 µM; IC50 ([6]; 2D6 IC50, CYP2D6 inhibition): 2.7 µM
C#Cc1cc(F)cc(C[C@H](NC(=O)COC)[C@H](O)CN[C@H]2CC3(CCC3)Oc3ncc(CC(C)C)cc32)c1 [Example 856, N-((1S,2R)-1-(3-ethynyl-5-fluorobenzyl)-2-hydroxy-3-(((4′S)-6′-(2-methylpropyl)-3′,4′-dihydrospiro[cyclobutane-1,2′-pyrano[2,3-b]pyridin]-4′-yl)amino)propyl)-2-methoxyacetamide]	150			0.002	78	63	IC50 [2, 11]: 0.009 µM; IC50 [6, 12]: 1 µM
CO[C@H](C)C(=O)N[C@@H](Cc1cccc(F)c1)[C@H](O)CN[C@H]1CC2(CCC2)Oc2c(-c3ccncc3)cc(CC(C)(C)C)cc21 [compound 585]	50	120	65.5				IC50 [1, 15]: 0.016 µM; IC50 [2, 16]: 0.012 µM; IC50 ([6]; 2D6 IC50, CYP2D6 inhibition): 0.75 µM
CO[C@H](C)C(=O)N[C@@H](Cc1cc(F)cc(-c2nccs2)c1)[C@H](O)CN[C@H]1CC2(CCC2)Oc2ncc(Br)cc21 [compound 852]	300			0.246	156	106	IC50 [2, 11]: 0.094 µM; IC50 [6, 12]: 0.3 µM
COCC(=O)N[C@@H](Cc1cccc(F)c1)[C@H](O)CN[C@H]1CC2(CCC2)Oc2nc3c(cc21)[C@H](C(C)C)CO3 [compound 763]	2000			2.5	399	399	IC50 [2, 20]: 1.3 µM; IC50 [6, 19]: 2 µM
